Literature values as cited in article PMC7395068, “The evolution of strategies to minimise the risk of human drug-induced liver injury (DILI) in drug discovery and development” (Archives of Toxicology, 2020).
Where two headings read alike, the source gives them in different places.

Details: cited from earlier work
[1] = binary in vivo DILI call given beside the severity category, ref Chen 2016
[2] = human DILI concern category (LTKB DILIrank), ref Chen 2016
[3] = LTKB DILIrank category, ref Chen 2016
[4] = binary human DILI assignment, ref Chen 2016
[5] = binary DILI call, ref Chen 2016

In the case of `O=P(O)(O)C(Sc1ccc(Cl)cc1)P(=O)(O)O` [tiludronate], the “DILI +VE (5-8), DILI -VE (-4)” value [1] is given as “-VE” and the DILI severity category [2] is given as “vNo-DILI-Concern”.
In the case of `CC(C)(C)NC[C@H](O)COc1nsnc1N1CCOCC1` [timolol], the “DILI +VE (5-8), DILI -VE (-4)” value [1] is listed as “-VE” and the DILI severity category [2] is listed as “Ambiguous DILI-concern”.
For `CC(S)C(=O)NCC(=O)O` (stereo not shown) [tiopronin], the “DILI +VE (5-8), DILI -VE (-4)” value [1] is given as “-VE” and the DILI severity category [2] is given as “Ambiguous DILI-concern”.
For `CCCCS(=O)(=O)N[C@@H](Cc1ccc(OCCCCC2CCNCC2)cc1)C(=O)O` [tirofiban], the “DILI +VE (5-8), DILI -VE (-4)” value [1] is given as “-VE” and the DILI severity category [2] is given as “vNo-DILI-Concern”.
For `Clc1ccc2nsnc2c1NC1=NCCN1` [tizanidine], the “DILI +VE (5-8), DILI -VE (-4)” value (in vivo) is given as “+VE” and the DILI severity category (in vivo) is given as “vMost-DILI-Concern”.
For `COc1ccc2c(C(=S)N(C)CC(=O)O)cccc2c1C(F)(F)F` [tolrestat], the “DILI +VE (5-8), DILI -VE (-4)” value [1] is given as “+VE” and the DILI severity category [2] is given as “vMost-DILI-Concern”.
For `Cc1ccccc1C(=O)Nc1ccc(C(=O)N2CCCC(O)c3cc(Cl)ccc32)c(C)c1` (stereo not shown) [tolvaptan], the “DILI +VE (5-8), DILI -VE (-4)” value [1] is listed as “+VE” and the DILI severity category [2] is listed as “vMost-DILI-Concern”.
For `CC[C@@]1(O)C(=O)OCc2c1cc1n(c2=O)Cc2cc3c(CN(C)C)c(O)ccc3nc2-1` [topotecan], the “DILI +VE (5-8), DILI -VE (-4)” value [1] is listed as “-VE” and the DILI severity category [2] is listed as “vNo-DILI-Concern”.
In the case of `CCOC(=O)[C@H](CCc1ccccc1)N[C@@H](C)C(=O)N1[C@H](C(=O)O)C[C@H]2CCCC[C@@H]21` [trandolapril], the “DILI +VE (5-8), DILI -VE (-4)” value [1] is given as “+VE” and the DILI severity category [2] is given as “vLess-DILI-Concern”.
For `CC(=O)Oc1ccc(C2(c3ccc(OC(C)=O)cc3)C(=O)N(C(C)=O)c3ccccc32)cc1` [triacetyldiphenolisatin], the “DILI +VE (5-8), DILI -VE (-4)” value [1] is listed as “+VE” and the DILI severity category [2] is listed as “vMost-DILI-Concern”.
For `Nc1nc(N)c2nc(-c3ccccc3)c(N)nc2n1` [triamterene], the “DILI +VE (5-8), DILI -VE (-4)” value [1] is listed as “+VE” and the DILI severity category [2] is listed as “vLess-DILI-Concern”.
For `Cc1nnc2n1-c1ccc(Cl)cc1C(c1ccccc1Cl)=NC2` [triazolam], the “DILI +VE (5-8), DILI -VE (-4)” value (in vivo) is given as “-VE” and the DILI severity category (in vivo) is given as “Ambiguous DILI-concern”.
For `Cl.Cl.NCCNCCNCCN` [trientine hydrochloride], the “DILI +VE (5-8), DILI -VE (-4)” value (in vivo) is listed as “-VE” and the DILI severity category (in vivo) is listed as “vNo-DILI-Concern”.
In the case of `COc1cc(C(=O)NCc2ccc(OCCN(C)C)cc2)cc(OC)c1OC` [trimethobenzamide], the “DILI +VE (5-8), DILI -VE (-4)” value [1] is listed as “-VE” and the DILI severity category [2] is listed as “Ambiguous DILI-concern”.
For `COc1cc(NCc2ccc3nc(N)nc(N)c3c2C)cc(OC)c1OC` [trimetrexate], the “DILI +VE (5-8), DILI -VE (-4)” value [1] is listed as “-VE” and the DILI severity category [2] is listed as “Ambiguous DILI-concern”.
For `CC(CN(C)C)CN1c2ccccc2CCc2ccccc21` (stereo not shown) [trimipramine], the “DILI +VE (5-8), DILI -VE (-4)” value [1] is given as “-VE” and the DILI severity category [2] is given as “Ambiguous DILI-concern”.
For `NC(CO)(CO)CO` [tromethamine], the DILI severity category [3] is given as “Ambiguous DILI-concern” and the “DILI +VE (5-8), DILI -VE (-4)” value [4] is given as “-VE”.
For `O=C(O[C@H]1C[C@H]2CC[C@@H](C1)[N+]21CCCC1)C(O)(c1ccccc1)c1ccccc1` [trospium], the DILI severity category [3] is listed as “vNo-DILI-Concern” and the “DILI +VE (5-8), DILI -VE (-4)” value [4] is listed as “-VE”.
For `NCCc1ccc(O)cc1` [tyramine], the DILI severity category [3] is listed as “vNo-DILI-Concern” and the “DILI +VE (5-8), DILI -VE (-4)” value [4] is listed as “-VE”.
In the case of `CC(C)[C@H](N)C(=O)OCCOCn1cnc2c(=O)[nH]c(N)nc21` [valaciclovir], the DILI severity category [3] is given as “vLess-DILI-Concern” and the “DILI +VE (5-8), DILI -VE (-4)” value [4] is given as “+VE”.
In the case of `Cc1onc(-c2ccccc2)c1-c1ccc(S(N)(=O)=O)cc1` [valdecoxib], the DILI severity category [3] is listed as “vLess-DILI-Concern” and the “DILI +VE (5-8), DILI -VE (-4)” value [4] is listed as “+VE”.
In the case of `CC(C)[C@H](N)C(=O)OCC(CO)OCn1cnc2c(=O)nc(N)[nH]c21` (stereo partly shown) [valganciclovir], the DILI severity category [3] is listed as “Ambiguous DILI-concern” and the “DILI +VE (5-8), DILI -VE (-4)” value [4] is listed as “-VE”.
For `c1cnc2cc3c(cc2n1)[C@@H]1CNC[C@H]3C1` [varenicline], the DILI severity category [3] is given as “vLess-DILI-Concern” and the “DILI +VE (5-8), DILI -VE (-4)” value [4] is given as “+VE”.
For `CC(=O)O[C@H]1C[C@@H]2CC[C@@H]3[C@H](CC[C@@]4(C)[C@H]3C[C@H]([N+]3(C)CCCCC3)[C@@H]4OC(C)=O)[C@@]2(C)C[C@@H]1N1CCCCC1` [vecuronium], the DILI severity category [3] is given as “vNo-DILI-Concern” and the “DILI +VE (5-8), DILI -VE (-4)” value [4] is given as “-VE”.
For `C=CC(N)CCC(=O)O` (stereo not shown) [vigabatrin], the DILI severity category [3] is listed as “Ambiguous DILI-concern” and the “DILI +VE (5-8), DILI -VE (-4)” value [4] is listed as “-VE”.
In the case of `CC[C@]1(O)C[C@H]2CN(CCc3c([nH]c4ccccc34)[C@@](C(=O)OC)(c3cc4c(cc3OC)N(C=O)[C@H]3[C@@](O)(C(=O)OC)[C@H](OC(C)=O)[C@]5(CC)C=CCN6CC[C@]43[C@@H]65)C2)C1` [vincristine], the DILI severity category [3] is given as “vLess-DILI-Concern” and the “DILI +VE (5-8), DILI -VE (-4)” value [4] is given as “+VE”.
In the case of `CCC1=C[C@@H]2CN(C1)Cc1c([nH]c3ccccc13)[C@@](C(=O)OC)(c1cc3c(cc1OC)N(C)[C@H]1[C@@](O)(C(=O)OC)[C@H](OC(C)=O)[C@]4(CC)C=CCN5CC[C@]31[C@@H]54)C2` [vinorelbine], the DILI severity category [3] is given as “Ambiguous DILI-concern” and the “DILI +VE (5-8), DILI -VE (-4)” value [4] is given as “-VE”.
For `CC1=C(/C=C/C(C)=C/C=C/C(C)=C/CO)C(C)(C)CCC1` [vitamin a], the DILI severity category [3] is listed as “vLess-DILI-Concern” and the “DILI +VE (5-8), DILI -VE (-4)” value [4] is listed as “+VE”.
For `O=C1O[C@H]([C@@H](O)CO)C(O)=C1O` [vitamin c], the DILI severity category [3] is given as “vNo-DILI-Concern” and the “DILI +VE (5-8), DILI -VE (-4)” value [4] is given as “-VE”.
For `O=C(CCCCCCC(=O)Nc1ccccc1)NO` [vorinostat], the DILI severity category [3] is listed as “vNo-DILI-Concern” and the “DILI +VE (5-8), DILI -VE (-4)” value [4] is listed as “-VE”.
In the case of `CCOC(Nc1ccc(C(=O)O)cc1)C(=O)c1ccc(-c2ccccc2)cc1` (stereo not shown) [xenazoic acid], the DILI severity category [3] is given as “vMost-DILI-Concern” and the “DILI +VE (5-8), DILI -VE (-4)” value [4] is given as “+VE”.
In the case of `O=C1Cc2cc(CCN3CCN(c4nsc5ccccc45)CC3)c(Cl)cc2N1` [ziprasidone], the DILI severity category [3] is given as “vLess-DILI-Concern” and the “DILI +VE (5-8), DILI -VE (-4)” value [4] is given as “+VE”.
In the case of `O=P(O)(O)C(O)(Cn1ccnc1)P(=O)(O)O` [zoledronate], the DILI severity category [3] is given as “vLess-DILI-Concern” and the “DILI +VE (5-8), DILI -VE (-4)” value [4] is given as “+VE”.
In the case of `CN(C)CCc1c[nH]c2ccc(C[C@H]3COC(=O)N3)cc12` [zolmitriptan], the DILI severity category [3] is given as “Ambiguous DILI-concern” and the “DILI +VE (5-8), DILI -VE (-4)” value [4] is given as “-VE”.
For Argipressin, the DILI severity category [3] is given as “vNo-DILI-Concern” and the “DILI +VE (5-8), DILI -VE (-4)” value [5] is given as “-VE”.
For Sodium polystyrene sulfonate, the “DILI +VE (5-8), DILI -VE (-4)” value (in vivo) is given as “-VE” and the DILI severity category (in vivo) is given as “vNo-DILI-Concern”.
In the case of abatacept, the “DILI +VE (5-8), DILI -VE (-4)” value (in vivo) is given as “+VE” and the DILI severity category (in vivo) is given as “vLess-DILI-Concern”.
For abciximab, the “DILI +VE (5-8), DILI -VE (-4)” value (in vivo) is given as “-VE” and the DILI severity category (in vivo) is given as “vNo-DILI-Concern”.
For adalimumab, the “DILI +VE (5-8), DILI -VE (-4)” value (in vivo) is listed as “+VE” and the DILI severity category (in vivo) is listed as “vLess-DILI-Concern”.
For agalsidase beta, the “DILI +VE (5-8), DILI -VE (-4)” value (in vivo) is listed as “-VE” and the DILI severity category (in vivo) is listed as “vNo-DILI-Concern”.
For aldesleukin, the “DILI +VE (5-8), DILI -VE (-4)” value (in vivo) is listed as “-VE” and the DILI severity category (in vivo) is listed as “Ambiguous DILI-concern”.
In the case of alemtuzumab, the “DILI +VE (5-8), DILI -VE (-4)” value (in vivo) is given as “-VE” and the DILI severity category (in vivo) is given as “vNo-DILI-Concern”.
For alglucosidase alfa, the “DILI +VE (5-8), DILI -VE (-4)” value (in vivo) is given as “-VE” and the DILI severity category (in vivo) is given as “vNo-DILI-Concern”.
In the case of alteplase, the “DILI +VE (5-8), DILI -VE (-4)” value (in vivo) is listed as “-VE” and the DILI severity category (in vivo) is listed as “vNo-DILI-Concern”.
For anakinra, the “DILI +VE (5-8), DILI -VE (-4)” value (in vivo) is listed as “+VE” and the DILI severity category (in vivo) is listed as “vLess-DILI-Concern”.
For aprotinin, the DILI severity category [3] is listed as “Ambiguous DILI-concern” and the “DILI +VE (5-8), DILI -VE (-4)” value [5] is listed as “-VE”.
In the case of asparaginase, the “DILI +VE (5-8), DILI -VE (-4)” value (in vivo) is given as “+VE” and the DILI severity category (in vivo) is given as “vMost-DILI-Concern”.
